{"source": "patent US10695364B2", "about": "“Anti-hemorrhaging compositions” (Ariel-University Research and Development Company Ltd., priority 2015, dated 2020)", "test_system": "blood drawn from mice", "experiment": "Blood coagulation assay (presence or absence of blood clots, observed with CCD camera)", "method": "Rats or mice (2-3 months old) were sacrificed using CO2 and their blood was extracted directly from the heart using 1 ml syringe and a 23-gauge needle. Blood was transferred to two groups of experimental tubes (400 microliters in each): empty tubes, and tubes containing citrate at a final concentration of 0.35% by weight (e.g., 50 μl of a respective 3.2% stock solution of trisodium citrate in water).\nThe anti-coagulant activity of the citrate powder was confirmed by recording absence of clot formation during the entire experiment, and thereafter, each of the following components was added to the tubes in both groups, at varying amounts:\n=Coral skeleton particulates prepared from Porites lutea (to achieve a final concentration of 50-200 mg/ml)\n=Coral skeleton particulates prepared from Stylophora subseriata (to achieve a final concentration of 50-200 mg/ml)\n=Geological aragonite (to achieve a final concentration of 50-200 mg/ml)\n=amorphous calcium carbonate (ACC) (1-200 mg, to achieve a final concentration of 2-50 mg/ml)\n=Glass beads (0.1 mm diameter; to achieve a final concentration of 100 mg/ml)\nCoagulation and anti-coagulation activity (presence and absence, respectively, of blood clots) was observed using a CCD camera.", "note": "Entries after “also recorded” stand apart in the source; their conditions may differ. Counter-ions that a name gives are not always drawn.", "data": [{"compound": "O=C(O)CC(O)(CC(=O)O)C(=O)O", "note": "[citrate, Trisodium citrate]", "values": [{"measurement": "effect of citrate by itself on clotting", "setting": "blood drawn from mice, 0.35% by weight of citrate, no calcium carbonate", "value": "blocked clotting; also recorded: anti-coagulation effect"}]}, {"compound": "O=C([O-])[O-].[K+].[K+]", "note": "[potassium carbonate]", "values": [{"measurement": "coagulation time of citrate-containing blood", "setting": "final concentration 50 mg/ml, citrate-containing blood, data not shown", "value": "40 to 45", "unit": "min"}]}]}
